Assay results from ChEMBL document CHEMBL1201862, “PubChem BioAssay data set” (2004).
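96-well plates; 48 h exposure; 5 concentrations. Endpoints by linear interpolation between flanking doses. Not reached: highest tested concentration assigned. At the GI50, growth is halved.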 Calls of active or inactive are those of the source. No stated cut-off is given here; in the data, active = GI50 up to about 1.1 µM and inactive = higher.

Columns and labels:
Experiment in all cases: NCI-60 cell line screen, 48 h
[1] = tested on: SK-MEL-28
[2] = tested on: HT-29
[3] = tested on: SW-620
[4] = tested on: SF-268
[5] = tested on: HOP-92
[6] = tested on: UACC-257
[7] = tested on: HL-60
[8] = tested on: NCI-H226
[9] = tested on: OVCAR-4
[10] = tested on: SF-539
[11] = tested on: T47D
[12] = tested on: MCF7
[13] = tested on: SK-OV-3
[14] = tested on: IGROV-1
[15] = tested on: KM12
[16] = tested on: A549
[17] = tested on: CCRF-CEM
[18] = tested on: NCI-H460
[19] = tested on: MDA-MB-231
[20] = tested on: SR

Compound	GI50 [1]	GI50 [2]	GI50 [3]	GI50 [4]	GI50 [5]	GI50 [6]	GI50 [7]	GI50 [8]	GI50 [9]	GI50 [10]	GI50 [11]	GI50 [12]	GI50 [13]	GI50 [14]	GI50 [15]	GI50 [16]	GI50 [17]	GI50 [18]	GI50 [19]	GI50 [20]
N#Cc1c(N)nc2[nH]nc(N)c2c1-c1ccccc1	14.2 µM (inactive)	12.2 µM (inactive)	26.9 µM (inactive)	10.2 µM (inactive)	2.56 µM (inactive)	21.1 µM (inactive)	11.2 µM (inactive)	11.8 µM (inactive)	11.3 µM (inactive)	7.16 µM (inactive)	0.452 µM (active)	4.59 µM (inactive)	4.02 µM (inactive)	2.8 µM (inactive)	6.4 µM (inactive)	6.58 µM (inactive)	16.4 µM (inactive)	4.28 µM (inactive)	4.48 µM (inactive)	> 20.4 µM (inactive)
O=S(=O)(O)c1ccc2c(/N=N/c3c(O)ccc4ccccc34)cccc2c1	> 100 µM (inactive)	> 100 µM (inactive)	> 100 µM (inactive)	> 100 µM (inactive)	> 100 µM (inactive)	> 100 µM (inactive)	> 100 µM (inactive)	> 100 µM (inactive)	> 100 µM (inactive)	> 100 µM (inactive)	> 100 µM (inactive)	> 100 µM (inactive)	> 100 µM (inactive)	65.8 µM (inactive)	> 100 µM (inactive)	> 100 µM (inactive)	70.6 µM (inactive)	> 100 µM (inactive)	> 100 µM (inactive)	> 100 µM (inactive)
CCOC(=O)C(SCCO)C(C(=O)OCC)n1cc(C)c(=O)[nH]c1=O (configuration not stated)	19.4 µM (inactive)	12.9 µM (inactive)	5.96 µM (inactive)	29.3 µM (inactive)	15.6 µM (inactive)	28.2 µM (inactive)	2.12 µM (inactive)	> 32.7 µM (inactive)	23 µM (inactive)	23.1 µM (inactive)	19.6 µM (inactive)	11.6 µM (inactive)	> 79.3 µM (inactive)	25.4 µM (inactive)	25.8 µM (inactive)	52.8 µM (inactive)	2.42 µM (inactive)	21.5 µM (inactive)	15.9 µM (inactive)	6.92 µM (inactive)
CCCCOC(=O)C(=O)C(CCC(=O)c1ccc(C)cc1)C(=O)C=C(C)C (configuration not stated)	> 100 µM (inactive)	> 100 µM (inactive)	> 100 µM (inactive)	> 100 µM (inactive)	> 100 µM (inactive)	> 100 µM (inactive)	> 100 µM (inactive)	> 100 µM (inactive)	> 100 µM (inactive)	> 100 µM (inactive)	> 100 µM (inactive)	> 100 µM (inactive)	> 100 µM (inactive)	> 100 µM (inactive)	> 100 µM (inactive)	> 100 µM (inactive)	> 100 µM (inactive)	> 100 µM (inactive)	> 100 µM (inactive)	> 100 µM (inactive)
c1n[nH]cc1C12C3C4C5C3C1C5C42 (configuration not stated)	> 100 µM (inactive)	> 100 µM (inactive)	> 100 µM (inactive)	> 100 µM (inactive)	65.6 µM (inactive)	> 100 µM (inactive)	75.9 µM (inactive)	> 100 µM (inactive)	> 100 µM (inactive)	> 100 µM (inactive)	85.3 µM (inactive)	> 100 µM (inactive)	> 100 µM (inactive)	> 100 µM (inactive)	> 100 µM (inactive)	> 100 µM (inactive)	> 100 µM (inactive)	–	> 100 µM (inactive)	> 100 µM (inactive)
Cc1sc(NC=C2C(=O)CC(C)(C)CC2=O)nc1-c1ccccc1	> 100 µM (inactive)	> 100 µM (inactive)	> 100 µM (inactive)	> 100 µM (inactive)	> 100 µM (inactive)	> 100 µM (inactive)	2.17 µM (inactive)	> 100 µM (inactive)	> 100 µM (inactive)	> 100 µM (inactive)	> 100 µM (inactive)	> 100 µM (inactive)	> 100 µM (inactive)	> 100 µM (inactive)	> 100 µM (inactive)	> 100 µM (inactive)	72.6 µM (inactive)	> 100 µM (inactive)	> 100 µM (inactive)	> 100 µM (inactive)
CN(C)CC1CCC/C(=C\c2ccc(OC(=O)/C=C/c3ccccc3)cc2)C1=O (configuration not stated)	2.65 µM (inactive)	1.87 µM (inactive)	1.95 µM (inactive)	3.37 µM (inactive)	2.22 µM (inactive)	3.48 µM (inactive)	1.85 µM (inactive)	2.96 µM (inactive)	2.35 µM (inactive)	1.77 µM (inactive)	1.06 µM (active)	0.208 µM (active)	24.2 µM (inactive)	3.85 µM (inactive)	1.28 µM (inactive)	2.75 µM (inactive)	0.265 µM (active)	4.88 µM (inactive)	2.73 µM (inactive)	0.796 µM (active)
CNC(=S)NN=C1NCCCN1	> 100 µM (inactive)	> 100 µM (inactive)	> 100 µM (inactive)	> 100 µM (inactive)	> 100 µM (inactive)	> 100 µM (inactive)	> 100 µM (inactive)	> 100 µM (inactive)	> 100 µM (inactive)	> 100 µM (inactive)	> 100 µM (inactive)	> 100 µM (inactive)	> 100 µM (inactive)	> 100 µM (inactive)	> 100 µM (inactive)	> 100 µM (inactive)	> 100 µM (inactive)	> 100 µM (inactive)	> 100 µM (inactive)	> 100 µM (inactive)
CCCCOC(=O)NC(Nc1cccc(C(F)(F)F)c1)(C(F)(F)F)C(F)(F)F	> 100 µM (inactive)	50.8 µM (inactive)	64.3 µM (inactive)	60 µM (inactive)	23.9 µM (inactive)	84.9 µM (inactive)	23.4 µM (inactive)	53.7 µM (inactive)	99.8 µM (inactive)	73.6 µM (inactive)	13.5 µM (inactive)	59.4 µM (inactive)	–	49.5 µM (inactive)	75.9 µM (inactive)	66.8 µM (inactive)	29.6 µM (inactive)	32.7 µM (inactive)	> 100 µM (inactive)	23.1 µM (inactive)
CCCCCCCCCCCCCCCC(=O)OCC(COP(=O)(O)OCCNC(=O)CCSSc1ccccn1)OC(=O)CCCCCCCCCCCCCCC (configuration not stated)	> 100 µM (inactive)	> 100 µM (inactive)	> 100 µM (inactive)	> 100 µM (inactive)	> 100 µM (inactive)	> 100 µM (inactive)	> 100 µM (inactive)	> 100 µM (inactive)	> 100 µM (inactive)	> 100 µM (inactive)	> 100 µM (inactive)	> 100 µM (inactive)	> 100 µM (inactive)	> 100 µM (inactive)	> 100 µM (inactive)	> 100 µM (inactive)	> 100 µM (inactive)	> 100 µM (inactive)	> 100 µM (inactive)	> 100 µM (inactive)
COc1cc(-c2cc(=O)c3c(OC)c(OC)c(OC)c(OC)c3o2)cc(OC)c1OC [HEPATAMETHOXYFLAVONE]	53.2 µM (inactive)	35.9 µM (inactive)	55 µM (inactive)	32.9 µM (inactive)	9.98 µM (inactive)	40 µM (inactive)	15 µM (inactive)	44.8 µM (inactive)	32.4 µM (inactive)	> 100 µM (inactive)	12.7 µM (inactive)	84.3 µM (inactive)	3.87 µM (inactive)	52.2 µM (inactive)	–	35.5 µM (inactive)	30.5 µM (inactive)	42.3 µM (inactive)	31.6 µM (inactive)	> 100 µM (inactive)
O=C1CCC(Cc2ccc(Cl)cc2Cl)C(=O)N1 (configuration not stated)	> 100 µM (inactive)	> 100 µM (inactive)	> 100 µM (inactive)	82.4 µM (inactive)	> 100 µM (inactive)	> 100 µM (inactive)	> 100 µM (inactive)	> 100 µM (inactive)	> 100 µM (inactive)	> 100 µM (inactive)	80.4 µM (inactive)	> 100 µM (inactive)	> 100 µM (inactive)	> 100 µM (inactive)	–	> 100 µM (inactive)	> 100 µM (inactive)	> 100 µM (inactive)	51.8 µM (inactive)	> 100 µM (inactive)
CCOC(=O)c1c(-c2cccc3ccccc23)c(C#N)c(=S)n(C2OC(COC(C)=O)C(OC(C)=O)C(OC(C)=O)C2OC(C)=O)c1C (configuration not stated)	> 100 µM (inactive)	> 100 µM (inactive)	–	> 100 µM (inactive)	> 100 µM (inactive)	> 100 µM (inactive)	> 100 µM (inactive)	> 100 µM (inactive)	> 100 µM (inactive)	> 100 µM (inactive)	> 100 µM (inactive)	> 100 µM (inactive)	> 100 µM (inactive)	> 100 µM (inactive)	> 100 µM (inactive)	> 100 µM (inactive)	> 100 µM (inactive)	> 100 µM (inactive)	> 100 µM (inactive)	> 100 µM (inactive)
O=C(OC1CN2CCC1CC2)N(c1ccccc1)c1ccccc1 (configuration not stated)	80.5 µM (inactive)	44.9 µM (inactive)	–	> 100 µM (inactive)	34.7 µM (inactive)	62.5 µM (inactive)	24.9 µM (inactive)	> 100 µM (inactive)	> 100 µM (inactive)	68.4 µM (inactive)	> 100 µM (inactive)	74.8 µM (inactive)	> 100 µM (inactive)	> 100 µM (inactive)	–	> 100 µM (inactive)	54.7 µM (inactive)	–	54 µM (inactive)	4.61 µM (inactive)
